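Five compound concentrations were applied to cells in 96-well plates for 48 hours; endpoints were derived by simple linear interpolation of the resulting dose-response curve. GI50 marks 50% less growth.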 Activity calls are given as the source filed them. Rule as the data show it: active = GI50 up to about 1.1 µM and inactive = higher.
Legend:
Assay in all cases: inhibition of tumour cell growth, NCI panel, 48 h
LOX IMVI = test system: LOX IMVI
MDA-MB-435 = test system: MDA-MB-435
DU-145 = test system: DU-145
SF-268 = test system: SF-268
COLO 205 = test system: COLO 205
NCI-H23 = test system: NCI-H23
MDA-MB-231 = test system: MDA-MB-231
NCI/ADR-RES = test system: NCI/ADR-RES
U-251 = test system: U-251
SF-539 = test system: SF-539
NCI-H522 = test system: NCI-H522
SNB-75 = test system: SNB-75
RXF 393 = test system: RXF 393
A498 = test system: A498
PC-3 = test system: PC-3
HOP-62 = test system: HOP-62
ACHN = test system: ACHN
CCRF-CEM = test system: CCRF-CEM
SR = test system: SR
HL-60 = test system: HL-60

Structure (SMILES)	GI50 (LOX IMVI)	GI50 (MDA-MB-435)	GI50 (DU-145)	GI50 (SF-268)	GI50 (COLO 205)	GI50 (NCI-H23)	GI50 (MDA-MB-231)	GI50 (NCI/ADR-RES)	GI50 (U-251)	GI50 (SF-539)	GI50 (NCI-H522)	GI50 (SNB-75)	GI50 (RXF 393)	GI50 (A498)	GI50 (PC-3)	GI50 (HOP-62)	GI50 (ACHN)	GI50 (CCRF-CEM)	GI50 (SR)	GI50 (HL-60)
c1cc(NNc2cccc(-c3nnn[nH]3)c2)cc(-c2nnn[nH]2)c1	> 100 µM (inactive)	> 100 µM (inactive)	> 100 µM (inactive)	> 100 µM (inactive)	> 100 µM (inactive)	> 100 µM (inactive)	> 100 µM (inactive)	> 100 µM (inactive)	> 100 µM (inactive)	> 100 µM (inactive)	> 100 µM (inactive)	> 100 µM (inactive)	> 100 µM (inactive)	> 100 µM (inactive)	> 100 µM (inactive)	> 100 µM (inactive)	> 100 µM (inactive)			
C=C1C(=O)OC2/C=C(\C)C3OC3/C=C(/C(=O)OC)C(OC(C)=O)C(OC(=O)C(C)(O)C(C)OC(C)=O)C12 (stereo unspecified)	1.53 µM (inactive)	2.03 µM (inactive)	> 10 µM (inactive)	5.55 µM (inactive)	1.29 µM (inactive)	2.5 µM (inactive)	8.93 µM (inactive)		3.03 µM (inactive)	2.11 µM (inactive)	0.284 µM (active)	2.81 µM (inactive)	0.501 µM (active)	3.24 µM (inactive)	3.96 µM (inactive)	20.8 µM (inactive)	3.78 µM (inactive)	0.305 µM (active)	0.652 µM (active)	0.308 µM (active)
CNC(=S)c1nnsc1N	> 100 µM (inactive)	> 100 µM (inactive)	> 100 µM (inactive)	> 100 µM (inactive)	0.043 µM (active)	> 100 µM (inactive)	> 100 µM (inactive)	> 100 µM (inactive)	> 100 µM (inactive)	> 100 µM (inactive)	9.14 µM (inactive)	> 100 µM (inactive)	> 100 µM (inactive)	87.3 µM (inactive)	9.93 µM (inactive)	> 100 µM (inactive)	> 100 µM (inactive)	> 100 µM (inactive)		0.0115 µM (active)
Oc1ccc2ccccc2c1-c1nnc(CCCCCCCCc2nnc(-c3c(O)ccc4ccccc34)o2)o1	1.01 µM (active)	4.24 µM (inactive)	5.08 µM (inactive)	0.834 µM (active)	15.3 µM (inactive)	5.21 µM (inactive)	3.52 µM (inactive)	1.44 µM (inactive)	1.05 µM (active)	1.52 µM (inactive)	0.63 µM (active)	21.4 µM (inactive)	3.48 µM (inactive)	16.5 µM (inactive)	1.98 µM (inactive)	1.59 µM (inactive)	0.741 µM (active)	0.448 µM (active)		0.319 µM (active)
NC(=O)N/N=C(\Cc1nc2ccc(Cl)cc2nc1O)C(=O)Nc1ccc(Cl)cc1Cl	> 100 µM (inactive)	> 100 µM (inactive)	> 100 µM (inactive)	> 100 µM (inactive)	> 100 µM (inactive)	> 100 µM (inactive)	> 100 µM (inactive)	> 100 µM (inactive)	> 100 µM (inactive)	> 100 µM (inactive)	> 100 µM (inactive)	> 100 µM (inactive)		> 100 µM (inactive)	> 100 µM (inactive)		> 100 µM (inactive)	> 100 µM (inactive)		> 100 µM (inactive)
CCN(CC)c1c(-c2c(N(CC)CC)c(OC(C)=O)c3sccn3c2=O)c(=O)n2ccsc2c1OC(C)=O	> 100 µM (inactive)	> 100 µM (inactive)	> 100 µM (inactive)	39.9 µM (inactive)	> 100 µM (inactive)	> 100 µM (inactive)	21.1 µM (inactive)	49.5 µM (inactive)	37.5 µM (inactive)	85.5 µM (inactive)		19.4 µM (inactive)		> 100 µM (inactive)	> 100 µM (inactive)	21.3 µM (inactive)	> 100 µM (inactive)	> 100 µM (inactive)		> 100 µM (inactive)
C[C@]12CC[C@@H]3c4cc(Br)c(O)c(Br)c4CC[C@H]3[C@@H]1CC(Br)C2=O (stereo partly specified)	3.57 µM (inactive)	4.13 µM (inactive)	23.4 µM (inactive)	5.68 µM (inactive)	7.87 µM (inactive)		6.62 µM (inactive)	4.63 µM (inactive)	3.3 µM (inactive)	7.52 µM (inactive)		12.1 µM (inactive)	2.51 µM (inactive)	23.3 µM (inactive)	8.61 µM (inactive)		6.37 µM (inactive)	1.71 µM (inactive)		2.59 µM (inactive)
CNC(=O)CCCNC(=O)CCCC(=O)OC	> 100 µM (inactive)	> 100 µM (inactive)	> 100 µM (inactive)	> 100 µM (inactive)	> 100 µM (inactive)	> 100 µM (inactive)	> 100 µM (inactive)	> 100 µM (inactive)	> 100 µM (inactive)	> 100 µM (inactive)	> 100 µM (inactive)	> 100 µM (inactive)		> 100 µM (inactive)	> 100 µM (inactive)	> 100 µM (inactive)	> 100 µM (inactive)	> 100 µM (inactive)		> 100 µM (inactive)
CC(=O)NC(C)(C)C1CC=C(C)/C(=N\O)C1 (stereo unspecified)	> 100 µM (inactive)	> 100 µM (inactive)	> 100 µM (inactive)	> 100 µM (inactive)	> 100 µM (inactive)	> 100 µM (inactive)	> 100 µM (inactive)		> 100 µM (inactive)	> 100 µM (inactive)	> 100 µM (inactive)	> 100 µM (inactive)			> 100 µM (inactive)	> 100 µM (inactive)		> 100 µM (inactive)	> 100 µM (inactive)	> 100 µM (inactive)
CCOC(=O)C(=CNC(=S)c1ccncc1)C(=O)OCC	> 100 µM (inactive)	> 100 µM (inactive)	> 100 µM (inactive)	> 100 µM (inactive)	> 100 µM (inactive)	> 100 µM (inactive)	> 100 µM (inactive)		> 100 µM (inactive)	> 100 µM (inactive)	> 100 µM (inactive)	25.6 µM (inactive)	> 100 µM (inactive)	> 100 µM (inactive)	> 100 µM (inactive)	> 100 µM (inactive)	> 100 µM (inactive)	> 100 µM (inactive)	> 100 µM (inactive)	> 100 µM (inactive)
COc1ccc2c(c1)/C(=C\c1c(-c3ccccc3)nc3n1CCS3)C(=O)N2	7.64 µM (inactive)	1.53 µM (inactive)	16.3 µM (inactive)	9.2 µM (inactive)	3.27 µM (inactive)	11.5 µM (inactive)	4.03 µM (inactive)	4.5 µM (inactive)	7.28 µM (inactive)	5.9 µM (inactive)	4.63 µM (inactive)	12.8 µM (inactive)	13.6 µM (inactive)	5.05 µM (inactive)	2.97 µM (inactive)	10.5 µM (inactive)	11.5 µM (inactive)	4.1 µM (inactive)		3.04 µM (inactive)
COc1ccc(NC(=O)CC(=O)N2N=C(N(c3ccccc3)c3ccccc3)CC2c2ccccc2)cc1 (stereo unspecified)	> 100 µM (inactive)	> 100 µM (inactive)	> 100 µM (inactive)	> 100 µM (inactive)	> 100 µM (inactive)	> 100 µM (inactive)	> 100 µM (inactive)	> 100 µM (inactive)	> 100 µM (inactive)	> 100 µM (inactive)	> 100 µM (inactive)	> 100 µM (inactive)	> 100 µM (inactive)	> 100 µM (inactive)	> 100 µM (inactive)	> 100 µM (inactive)	> 100 µM (inactive)	> 100 µM (inactive)		> 100 µM (inactive)
CC(=O)[C@]1(O)Cc2c(O)c3c(c(O)c2C(OC2OC(C)C(O)C(O)C2F)C1)C(=O)c1ccccc1C3=O (stereo partly specified)	0.0713 µM (active)	0.371 µM (active)	0.0502 µM (active)	0.084 µM (active)	0.259 µM (active)	0.0371 µM (active)	0.115 µM (active)	0.318 µM (active)	< 0.0159 µM (active)	< 0.0402 µM (active)	0.316 µM (active)	0.0664 µM (active)	0.624 µM (active)	0.0581 µM (active)	0.316 µM (active)	< 0.0189 µM (active)	0.0107 µM (active)	< 0.0141 µM (active)		< 0.01 µM (active)
C[n+]1c(/C=C/c2ccc(/C=N/NC(=O)c3ccc(C(=O)N/N=C/c4ccc(/C=C/c5cn6ccccc6[n+]5C)cc4)cc3)cc2)cn2ccccc21	> 100 µM (inactive)	> 100 µM (inactive)	> 100 µM (inactive)	> 100 µM (inactive)	98.4 µM (inactive)	> 100 µM (inactive)	> 100 µM (inactive)	> 100 µM (inactive)	> 100 µM (inactive)	> 100 µM (inactive)		> 100 µM (inactive)			> 100 µM (inactive)	> 100 µM (inactive)	> 100 µM (inactive)	20 µM (inactive)		23.4 µM (inactive)
C=C(C)COc1cc(/N=C(/S)OC(C)C)ccc1Cl	16.3 µM (inactive)	15.2 µM (inactive)	16.7 µM (inactive)	19.5 µM (inactive)	16.3 µM (inactive)	16.1 µM (inactive)	15.4 µM (inactive)	15.2 µM (inactive)	16.9 µM (inactive)	16.1 µM (inactive)	14.9 µM (inactive)	15.2 µM (inactive)			14.7 µM (inactive)		17.1 µM (inactive)	13.5 µM (inactive)		15.6 µM (inactive)
